ChEMBL document CHEMBL1287701, “Substituted N-{3-[(1,1-dioxido-1,2-benzothiazol-3-yl)(phenyl)amino]propyl}benzamide analogs as potent Kv1.3 ion channel blockers. Part 2” (Bioorg Med Chem Lett, 2010)
≈ marks a conversion by molar mass, not a printed value.

Assays:
[1] = target: Potassium voltage-gated channel subfamily A member 5 (Homo sapiens, UniProt P22460); assay: Inhibition of human Kv1.5 ion channel expressed in CHO K1 cells; assay type: cell-based
[2] = target: Potassium voltage-gated channel subfamily A member 3 (Homo sapiens, UniProt P22001); assay: Inhibition of human Kv1.3 ion channel expressed in CGE22 cells; assay type: cell-based
[3] = Half life in rat liver microsome; assay type: ADME; conditions: liver microsomes
Rattus norvegicus = assay: Dose normalised AUC in rat at 10 mg/kg, po; assay type: ADME, organism-based; parameters: dose 10 mg/kg, route oral; conditions: in vivo
[4] = Aqueous solubility of compound by chemiluminescent nitrogen detection analysis; assay type: physicochemical
[5] = Cmax in rat at 10 mg/kg, po; assay type: ADME, organism-based; parameters: dose 10 mg/kg, route oral; conditions: in vivo

Potassium voltage-gated channel subfamily A member 5, sequence (P22460 whole entry): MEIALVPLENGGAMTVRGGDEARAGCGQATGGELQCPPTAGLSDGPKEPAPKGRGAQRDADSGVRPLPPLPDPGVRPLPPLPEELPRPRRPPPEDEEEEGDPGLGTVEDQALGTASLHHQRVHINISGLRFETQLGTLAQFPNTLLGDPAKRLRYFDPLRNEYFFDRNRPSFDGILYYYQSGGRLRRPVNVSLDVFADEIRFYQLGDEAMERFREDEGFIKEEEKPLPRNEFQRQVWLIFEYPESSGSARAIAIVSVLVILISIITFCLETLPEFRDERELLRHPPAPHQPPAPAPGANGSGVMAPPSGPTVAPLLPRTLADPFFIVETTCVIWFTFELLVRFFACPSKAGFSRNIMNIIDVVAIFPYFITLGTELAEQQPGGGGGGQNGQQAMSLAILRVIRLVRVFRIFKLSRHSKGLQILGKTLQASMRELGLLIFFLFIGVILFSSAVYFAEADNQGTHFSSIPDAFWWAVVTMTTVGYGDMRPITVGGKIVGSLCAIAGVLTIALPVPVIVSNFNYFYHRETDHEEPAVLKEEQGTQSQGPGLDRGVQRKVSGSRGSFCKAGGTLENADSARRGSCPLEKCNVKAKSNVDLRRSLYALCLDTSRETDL
Potassium voltage-gated channel subfamily A member 3, sequence (P22001 whole entry): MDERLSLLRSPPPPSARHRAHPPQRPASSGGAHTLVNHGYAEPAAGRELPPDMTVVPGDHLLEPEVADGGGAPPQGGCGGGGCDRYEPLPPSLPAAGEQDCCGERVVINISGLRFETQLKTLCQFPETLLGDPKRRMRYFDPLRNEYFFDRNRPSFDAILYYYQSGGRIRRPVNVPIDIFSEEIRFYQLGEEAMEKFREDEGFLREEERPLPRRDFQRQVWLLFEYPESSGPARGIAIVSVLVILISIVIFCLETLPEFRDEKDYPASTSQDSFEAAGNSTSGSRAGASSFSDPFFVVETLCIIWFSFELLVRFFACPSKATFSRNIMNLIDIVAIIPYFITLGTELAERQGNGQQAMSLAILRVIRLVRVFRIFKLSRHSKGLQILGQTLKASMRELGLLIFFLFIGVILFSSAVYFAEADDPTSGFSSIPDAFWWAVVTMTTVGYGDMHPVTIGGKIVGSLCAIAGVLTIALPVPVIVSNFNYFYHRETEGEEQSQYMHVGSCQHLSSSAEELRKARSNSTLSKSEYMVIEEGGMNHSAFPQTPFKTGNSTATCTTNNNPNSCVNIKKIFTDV

IC50 [1] [nM]	IC50 [2] [nM]	Compound	further results
240	80	CC(C)(CNC(=O)C1(C(F)(F)F)CC1)CN(C1=NS(=O)(=O)c2cc(F)ccc21)c1ccccc1	–
1390	2560	CN1CCCC1C(=O)NCC(C)(C)CN(C1=NS(=O)(=O)c2cc(F)ccc21)c1ccccc1 (configuration not stated)	–
2640	1510	CC(C)(CNC(=O)C1(N)CCCC1)CN(C1=NS(=O)(=O)c2cc(F)ccc21)c1ccccc1	–
2220	3080	CNC(=O)NCC(C)(C)CN(C1=NS(=O)(=O)c2cc(F)ccc21)c1ccccc1	–
3450	–	O=c1ccc2c(OCCCCOc3ccccc3)c3ccoc3cc2o1	–
320	140	CC(C)(CNC(=O)C1CC1(F)F)CN(C1=NS(=O)(=O)c2cc(F)ccc21)c1ccccc1 (configuration not stated)	–
1980	1070	CC(C)(CNC(=O)C1(O)CCOCC1)CN(C1=NS(=O)(=O)c2cc(F)ccc21)c1ccccc1	–
> 50000	> 50000	CC(C)(CNC(=O)C1(C(=O)O)CC1)CN(C1=NS(=O)(=O)c2cc(F)ccc21)c1ccccc1	–
730	470	CC(C)(CNC(=O)C1(O)CCCC1)CN(C1=NS(=O)(=O)c2cc(F)ccc21)c1ccccc1	–
520	550	Cn1ccnc1C(=O)NCC(C)(C)CN(C1=NS(=O)(=O)c2cc(F)ccc21)c1ccccc1	–
–	700	CC(C)(CNC(=O)C1CCOCC1)CN(C1=NS(=O)(=O)c2ccccc21)c1ccccc1	half-life [3]: 32 min
790	530	CC(C)(CNC(=O)C1(N)CC1)CN(C1=NS(=O)(=O)c2cc(F)ccc21)c1ccccc1	–
410	200	CC(C)(CNC(=O)c1ccco1)CN(C1=NS(=O)(=O)c2cc(F)ccc21)c1ccccc1	–
> 50000	> 50000	CC(C)(CNC(=O)c1cc2ccccc2o1)CN(C1=NS(=O)(=O)c2cc(F)ccc21)c1ccccc1	–
–	160	CC(C)(CNC(=O)c1ccc(F)cc1)CN(C1=NS(=O)(=O)c2ccccc21)c1ccccc1	half-life [3]: < 15 min
270	150	CC(C)(CNC(=O)CC(F)(F)F)CN(C1=NS(=O)(=O)c2cc(F)ccc21)c1ccccc1	–
560	330	CC(C)(CNC(=O)C1(C#N)CCOCC1)CN(C1=NS(=O)(=O)c2cc(F)ccc21)c1ccccc1	–
360	150	CC(C)(CNC(=O)c1ccoc1)CN(C1=NS(=O)(=O)c2cc(F)ccc21)c1ccccc1	–
350	230	CC(C)(CNC(=O)c1cnccn1)CN(C1=NS(=O)(=O)c2cc(F)ccc21)c1ccccc1	–
–	340	CC(C)(CNC(=O)N1CCOCC1)CN(C1=NS(=O)(=O)c2cc(F)ccc21)c1ccccc1	half-life [3]: 60 min
290	540	CC(C)(CNC(=O)c1cscn1)CN(C1=NS(=O)(=O)c2cc(F)ccc21)c1ccccc1	–
13900	13100	Cn1cnc(C(=O)NCC(C)(C)CN(C2=NS(=O)(=O)c3cc(F)ccc32)c2ccccc2)c1	–
1350	820	CC(C)(CNC(=O)C1(O)CC1)CN(C1=NS(=O)(=O)c2cc(F)ccc21)c1ccccc1	–
830	360	CC(C)(CNC(=O)C1CCCO1)CN(C1=NS(=O)(=O)c2cc(F)ccc21)c1ccccc1 (configuration not stated)	–
370	200	COc1cnccc1C(=O)NCC(C)(C)CN(C1=NS(=O)(=O)c2cc(F)ccc21)c1ccccc1	–
–	530	CC(C)(CNC(=O)C1CCOCC1)CN(C1=NS(=O)(=O)c2cc(F)ccc21)c1ccccc1	half-life [3]: 26 min
> 50000	> 50000	CC(C)(CNC(=O)c1ccncc1O)CN(C1=NS(=O)(=O)c2cc(F)ccc21)c1ccccc1	–

IC50 [1] [nM]	IC50 [2] [nM]	Compound	further results
13700	12000	CN1CCCC(C(=O)NCC(C)(C)CN(C2=NS(=O)(=O)c3cc(F)ccc32)c2ccccc2)C1 (configuration not stated)	–
5970	5900	CC(C)(CNC(=O)C1CCCCN1)CN(C1=NS(=O)(=O)c2cc(F)ccc21)c1ccccc1 (configuration not stated)	–
480	250	CC(C)(CNC(=O)C(C)(O)C(F)(F)F)CN(C1=NS(=O)(=O)c2cc(F)ccc21)c1ccccc1 (configuration not stated)	AUC (Rattus norvegicus): 1630 ng·kg·h/mg/mL; solubility [4]: 52 µM (≈ 26.1 µg/mL); Cmax [5]: 2100 ng/mL
490	280	CC(C)(CNC(=O)C1CC1)CN(C1=NS(=O)(=O)c2cc(F)ccc21)c1ccccc1	–
320	90	CC(C)(CNC(=O)C1(C(F)(F)F)CCC1)CN(C1=NS(=O)(=O)c2cc(F)ccc21)c1ccccc1	–
540	350	CC(C)(CNC(=O)C1(C#N)CC1)CN(C1=NS(=O)(=O)c2cc(F)ccc21)c1ccccc1	AUC (Rattus norvegicus): 630 ng·kg·h/mg/mL; solubility [4]: 304 µM (≈ 138 µg/mL); Cmax [5]: 900 ng/mL
340	300	CC(C)(CNC(=O)N1CCCC1)CN(C1=NS(=O)(=O)c2cc(F)ccc21)c1ccccc1	–
460	320	CC(C)(CNC(=O)c1ncccc1O)CN(C1=NS(=O)(=O)c2cc(F)ccc21)c1ccccc1	–
–	440	CC(CNC(=O)c1ccc(F)cc1)CN(C1=NS(=O)(=O)c2ccccc21)c1ccccc1 (configuration not stated)	half-life [3]: 22 min
1180	1180	CC(=O)NCC(C)(C)CN(C1=NS(=O)(=O)c2cc(F)ccc21)c1ccccc1	–
–	–	O=C(NCCCN(C1=NS(=O)(=O)c2ccccc21)c1ccccc1)c1ccc(F)cc1	half-life [3]: < 15 min
2880	3400	CN1CCCCC1C(=O)NCC(C)(C)CN(C1=NS(=O)(=O)c2cc(F)ccc21)c1ccccc1 (configuration not stated)	–
–	560	CC(C)(CNC(=O)c1cccc(C(F)(F)F)c1)CN(C1=NS(=O)(=O)c2ccccc21)c1ccccc1	half-life [3]: < 15 min
–	470	CC(C)(CNC(=O)N1CCOCC1)CN(C1=NS(=O)(=O)c2ccccc21)c1ccccc1	half-life [3]: 30 min
2000	1260	CC(C)(CNC(=O)C1COCCN1)CN(C1=NS(=O)(=O)c2cc(F)ccc21)c1ccccc1 (configuration not stated)	–
–	700	CC(C)(CNC(=O)c1cccc(C(F)(F)F)c1)CN(C1=NS(=O)(=O)c2cc(F)ccc21)c1ccccc1	half-life [3]: 39 min
960	840	CC(C)(CNC(=O)C1CCOCC1(C)C)CN(C1=NS(=O)(=O)c2cc(F)ccc21)c1ccccc1 (configuration not stated)	–
630	390	CC(C)(CNC(=O)C1(O)CCC(F)(F)CC1)CN(C1=NS(=O)(=O)c2cc(F)ccc21)c1ccccc1	–
900	750	CC(C)(CNC(=O)c1cocn1)CN(C1=NS(=O)(=O)c2cc(F)ccc21)c1ccccc1	–
450	350	CC(C)(CNC(=O)C1(O)CCCCC1)CN(C1=NS(=O)(=O)c2cc(F)ccc21)c1ccccc1	–
9060	10100	CC(C)(CNC(=O)c1cccnc1O)CN(C1=NS(=O)(=O)c2cc(F)ccc21)c1ccccc1	–
1320	1150	CC(C)(CNC(=O)c1cc[nH]c1)CN(C1=NS(=O)(=O)c2cc(F)ccc21)c1ccccc1	–
780	1350	CC(C)(CNC(=O)CC1CCCCO1)CN(C1=NS(=O)(=O)c2cc(F)ccc21)c1ccccc1 (configuration not stated)	–
> 50000	> 50000	CC(C)(CNC(=O)C1CCCNC1)CN(C1=NS(=O)(=O)c2cc(F)ccc21)c1ccccc1 (configuration not stated)	–
440	640	CC(C)(CNC(=O)C1CCCCO1)CN(C1=NS(=O)(=O)c2cc(F)ccc21)c1ccccc1 (configuration not stated)	–
> 50000	> 50000	CN1CCC(C(=O)NCC(C)(C)CN(C2=NS(=O)(=O)c3cc(F)ccc32)c2ccccc2)CC1	–
370	200	CC(C)(CNC(=O)C1(C)CC1)CN(C1=NS(=O)(=O)c2cc(F)ccc21)c1ccccc1	–
